Source: patent publication US20230416239A1, “COMPOUNDS AND METHODS FOR TREATING A CYTOKINE-MEDIATED DISEASE” (CONSERVATOIRE NATIONAL DES ARTS ET MÉTIERS, priority 2020, published 2023)

Tests used:
[1] = target: IL-6 (Homo sapiens, UniProt P05231); assay: Immunoassay binding test, IL-6 (gp130 receptor, IL-6Ra present); settings: IL-6Ra 200 ng/ml
Procedure, shortened: (§1)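 Compounds (final 100 to 0.78 μM) were preincubated 2 h at 37 °C with a fixed amount of cytokine; for IL-6, IL-6Ra was also present at 200 ng/ml final. Mixtures were then incubated overnight at 4 °C on receptor-coated plates. Bound cytokine was detected with biotinylated anti-cytokine antibody and avidin-HRP, read as OD at 450 nm.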

[2] = target: TNFa/TNFRI interaction (Homo sapiens, UniProt P01375); assay: TNFa/TNFRI interaction displacement test; type: binding; settings: compounds at 50 μM; human TNFRI 100 ng/ml
Chain of TNFa/TNFRI interaction (P01375 77-233 limits assumed): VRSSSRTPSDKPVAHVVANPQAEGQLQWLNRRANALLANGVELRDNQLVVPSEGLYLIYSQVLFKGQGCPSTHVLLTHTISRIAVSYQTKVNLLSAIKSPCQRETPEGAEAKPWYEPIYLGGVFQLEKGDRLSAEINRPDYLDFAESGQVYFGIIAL
Procedure, shortened: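 Plates coated overnight at 4° C with human TNFRI (100 ng/ml) and blocked with 2% BSA, then test mixtures were incubated overnight at 4° C. Bound cytokine detected with biotinylated anti-cytokine antibody (2 h, 37° C) and avidin-HRP, read as OD at 450 nm.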

[3] = target: IL-13 (Homo sapiens, UniProt P35225); assay: Immunoassay binding test, IL-13; settings: for IC50: IL-13 400 ng/ml, receptor 100 ng/ml, read-out: BINDING IL13 IC50
Chain of IL-13 (P35225 25-146, species assumed): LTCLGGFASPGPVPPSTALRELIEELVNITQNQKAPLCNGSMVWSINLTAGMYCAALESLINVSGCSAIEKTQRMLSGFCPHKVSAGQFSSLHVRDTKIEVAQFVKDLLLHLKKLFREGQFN
Procedure, shortened: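 Receptor-coated plates; compounds (100 to 0.78 μM final) preincubated 2 h at 37° C with fixed cytokine, then bound to receptor overnight at 4° C. Bound cytokine detected with biotinylated anti-cytokine antibody and avidin-HRP, OD 450 nm.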

[4] = target: T1, IL-4 (Homo sapiens, UniProt P05112); assay: Immunoassay binding test, IL-4; settings: for IC50: IL-4 400 ng/ml, receptor 100 ng/ml, read-out: BINDING IL4 IC50
T1 sequence (P05112 25-153): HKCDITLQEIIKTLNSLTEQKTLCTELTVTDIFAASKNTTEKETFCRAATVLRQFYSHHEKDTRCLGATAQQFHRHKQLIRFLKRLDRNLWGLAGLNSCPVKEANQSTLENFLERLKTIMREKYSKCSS
Procedure, shortened: as §1

[5] = target: TNFα (Homo sapiens, UniProt P01375); assay: Immunoassay binding test, TNFa; settings: compounds 100 to 0.78 μM; TNFα 10 ng/ml, receptor 100 ng/ml; read-out: BINDING TNF IC50
Chain of TNFα (P01375 77-233 limits assumed, species assumed): as the sequence (P01375 77-233 limits assumed) above
Procedure, shortened: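 ELISA-type binding test: receptor-coated plates blocked with 2% BSA, then cytokine (six-point dilution series) preincubated 2 h at 37 °C and bound overnight at 4 °C. Detection used biotinylated anti-cytokine antibody and avidin-HRP, read as OD at 450 nm. For IL-6, IL-6Ra was present at 200 ng/ml final.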

Chain of IL-6 (P05231 30-212, species assumed): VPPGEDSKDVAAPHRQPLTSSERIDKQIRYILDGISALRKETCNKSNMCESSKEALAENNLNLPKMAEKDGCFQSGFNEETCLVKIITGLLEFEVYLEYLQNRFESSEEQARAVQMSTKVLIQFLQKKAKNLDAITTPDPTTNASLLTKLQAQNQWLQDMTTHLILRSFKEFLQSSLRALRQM

| Compound | BINDING IL6 % Neutra at 100 μM [1] [%] | Displacement (%) [2] [%] | BINDING IL13 % Neutra at 100 μM [3] [%] | IC50 [3] [µM] | BINDING IL4 % Neutra at 100 μM [4] [%] | IC50 [4] [µM] | IC50 [5] [µM] |
| --- | --- | --- | --- | --- | --- | --- | --- |
| CN(CCCCCN(Cc1cccnc1F)Cc1cn(S(=O)(=O)c2ccccc2)c2ccccc12)C1CCCCC1 [Compound 52, N1-cyclohexyl-N5-((2-fluoropyridin-3-yl)methyl)-N1-methyl-N5-((1-(phenylsulfonyl)-1H-indol-3-yl)methyl)pentane-1,5-diamine] | 0 | 145 | 88.1 | 15.8 | 91.7 | 5 | 9.1 |
| CN(CCCCCN(Cc1ccnc(F)c1)Cc1cn(S(=O)(=O)c2ccccc2)c2ccccc12)C1CCCCC1 [Compound 53, N1-cyclohexyl-N5-((2-fluoropyridin-4-yl)methyl)-N1-methyl-N5-((1-(phenylsulfonyl)-1H-indol-3-yl)methyl)pentane-1,5-diamine] | 0 | 115 | 91.6 | 15.2 | 92.7 | 5.2 | 8.4 |
| CN(CCCCCN(Cc1cccc(F)n1)Cc1cn(S(=O)(=O)c2ccccc2)c2ccccc12)C1CCCCC1 [Compound 54, N1-cyclohexyl-N5-((6-fluoropyridin-2-yl)methyl)-N1-methyl-N5-((1-(phenylsulfonyl)-1H-indol-3-yl)methyl)pentane-1,5-diamine] | 0 | 85 | 92.5 | 47.4 | 88.4 | 3 | 11.7 |
| O=S(=O)(c1ccccc1)n1cc(CN(CCCCCNC2CCCCC2)Cc2ccc(F)nc2)c2ccccc21 [Compound 56] | 0 | 124 | 93.4 | 10.2 | 91.9 | 2.6 | 13.2 |
| CN(CCCCCN(Cc1ccc(F)nc1)Cc1cn(S(=O)(=O)c2ccccc2)c2ccccc12)C1CCCCC1 [Compound 58] | 1 | 126 | 89.1 | 10.4 | 92.5 | 2.1 | 6.7 |
| NCCN(Cc1cccnc1)Cc1cn(S(=O)(=O)c2ccccc2)c2ccccc12 [Compound 59] | 0 | 78 | 59.3 | > 50 | 89.4 | 43.9 | 35.8 |
| O=[N+]([O-])c1ccccc1S(=O)(=O)NCCCN(Cc1cccnc1)Cc1cn(S(=O)(=O)c2ccccc2)c2ccccc12 [Compound 60] | 0 | 2 | 0 |  | 36.4 |  | > 50 |
| O=S(=O)(c1ccccc1)n1cc(CN(CCCCCNCc2cccnc2F)Cc2cccnc2F)c2ccccc21 [Compound 62] | 0 | 105 | 67.9 | 38.5 | 81.5 | 7.8 | 26.8 |
| NCCCCN(Cc1cccnc1F)Cc1cn(S(=O)(=O)c2ccccc2)c2ccccc12 [Compound 63] | 0 | 88 | 55.4 | > 50 | 85.9 | 16 | 26.5 |

Other lines, results leading:

| BINDING IL6 % Neutra at 100 μM [1] [%] | Displacement (%) [2] [%] | BINDING IL13 % Neutra at 100 μM [3] [%] | IC50 [3] [µM] | BINDING IL4 % Neutra at 100 μM [4] [%] | IC50 [4] [µM] | IC50 [5] [µM] | Compound |
| --- | --- | --- | --- | --- | --- | --- | --- |
| 0 | 197 | 83.9 | 28.2 | 90.7 | 5.1 | 8.9 | O=S(=O)(c1ccccc1)n1cc(CN(CCOCCNC2CCCCC2)Cc2cccnc2F)c2ccccc21 [Compound 64, N-(2-(2-(((2-fluoropyridin-3-yl)methyl) ((1-(phenylsulfonyl)-1H-indol-3-yl)methyl)amino)ethoxy)ethyl)cyclohexanaminee] |
| 3 | 215 | 85.1 | 36 | 89.1 | 4.7 | 6.4 | CCN(CCCCN(Cc1cccnc1F)Cc1cn(S(=O)(=O)c2ccccc2)c2ccccc12)C1CCCCC1 [Compound 66, N′-cyclohexyl-N′-ethyl-N^4-((2-fluoropyridin-3-yl)methyl)-N^4-((1-(phenylsulfonyl)-1H-indol-3-yl)methyl)butane-1,4-diamine] |
| 0 | 219 | 81.6 | 17.3 | 86.0 | 4.2 | 10 | CCCCN(CCCCN(Cc1cccnc1F)Cc1cn(S(=O)(=O)c2ccccc2)c2ccccc12)C1CCCCC1 [Compound 68, N′-butyl-N′-cyclohexyl-N^4-((2-fluoropyridin-3-yl)methy)-N^4-((1-(phenylsulfonyl)-1H-indol-3-yl)methyl)butane-1,4-diamine] |
| 0 | 121 | 79.7 | > 50 | 93.6 | 5.6 | 12.1 | O=S(=O)(c1ccccc1)n1cc(CN(CCCCNC2CCC2)Cc2cccnc2F)c2ccccc21 [Compound 69, N′-cyclobutyl-N^4-((2-fluoropyridin-3-yl)methyl)-N^4-((1-(phenylsulfonyl)-1H-indol-3-yl)methyl)butane-1,4-diamine] |
| 1 | 126 | 69.6 | > 100 | 92.4 | 13.5 | 11.5 | CN(CCCCN(Cc1cccnc1F)Cc1cn(S(=O)(=O)c2ccccc2)c2ccccc12)C1CCC1 [Compound 70, N′-cyclobutyl-N^4-((2-fluoropyridin-3-yl)methyl)-N′-methyl-N^4-((1-(phenylsulfonyl)-1H-indol-3-yl)methyl)butane-1,4-diamine] |
| 3 | 208 | 92.1 | > 50 | 89.8 | 8.1 | 9.7 | CN(CCCCN(Cc1cccnc1F)Cc1cn(S(=O)(=O)c2ccccc2)c2ccccc12)C1CCCC1 [Compound 72, N′-cyclopentyl-N^4-((2-fluoropyridin-3-yl)methyl)-N′-methyl-N^4-((1-(phenylsulfonyl)-1H-indol-3-yl)methyl)butane-1,4-diamine] |
